Source: patent US10111435B2, “Herbicidal compositions containing N-(1,3,4-oxadiazol-2-yl)-aryl carboxylic acid amides” (BAYER CROPSCIENCE AKTIENGESELLSCHAFT, priority 2013, dated 2018)

What was measured:
Format in all cases: in vivo
[1] = tested on: Echinochloa crus-galli (ECHCG); experiment: greenhouse post-emergence herbicidal efficacy against ECHCG; settings: 0.4 g of a.i./ha
Experimental: (§1) All trials whose results are shown were conducted in a greenhouse by the methodology specified below. The effect of the inventive herbicidal compositions was examined on the following harmful plants 14 and 21 days after application:
(§2) Echinochloa crus-galli (ECHCG), Eleusine indica (ELEIN), Setaria viridis (SETVI), Amaranthus retroflexus (AMARE), Chenopodium album (CHEAL), Kochia scoparia (KCHSC), Solanum nigrum (SOLNI), Avena fatua (AVEFA), Bromus sterilis (BROST), Lolium multiflorum (LOLMU), Phalaris minor (PHAMI), Poa annua (POAAN), Galium aparine (GALAP), Matricaria inodora (MATIN) and Polygonum convolvulus (POLCO).
(§3) The harmful plant seeds were sown in pots (diameter 8 cm) with sandy loam soil and germinated under optimal conditions. The inventive herbicidal compositions or the active ingredients alone were applied post-emergence to the planted pots with a spray volume of 300 L/ha. The trial was conducted in a greenhouse under optimum growth conditions. The herbicidal effects were assessed visually by comparison of untreated and treated plants. The percentages mean: 0%=no effects, 100%=the plants die off completely). The percentages are used to calculate interactions between individual treatments and combination treatments according to S. R. Colby, Weeds 15, pages 20 to 22 (1967).
(§4) The abbreviations mean: • a.i.=active ingredient • E^C=expected value according to Colby (E^C=A+B−A×B/100) • Diff: =difference (%) of measured value from expected value (%) (measured value minus expected value)
(§5) Assessment: • measured value E is greater than E^C:->synergism (+ diff.) • measured value E equals E^C:->additive effect • measured value E is smaller than E^C:->antagonism(− diff.)

Eleusine indica (ELEIN) = experiment: greenhouse post-emergence herbicidal efficacy against ELEIN; settings: 14 days after application
Experimental: as §1, §2, §3, §4, §5

Setaria viridis (SETVI) = experiment: greenhouse post-emergence herbicidal efficacy against SETVI
Experimental: as §1, §2, §3, §4, §5

[2] = tested on: Amaranthus retroflexus (AMARE); experiment: greenhouse post-emergence herbicidal efficacy against AMARE; settings: 14 days after application, 0.1 g of a.i./ha
Experimental: as §1, §2, §3, §4, §5

[3] = tested on: Chenopodium album (CHEAL); experiment: greenhouse post-emergence herbicidal efficacy against CHEAL; settings: 0.1 g of a.i./ha
Experimental: as §1, §2, §3, §4, §5

Bromus sterilis (BROST) = experiment: greenhouse post-emergence herbicidal efficacy against BROST
Method in brief: (§6)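 In the greenhouse, herbicidal compositions and their individual active ingredients are applied post-emergence at 300 L/ha. Damage is scored by eye against untreated controls on a 0–100% scale at 14 and 21 days.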

[4] = tested on: Lolium multiflorum (LOLMU); experiment: greenhouse post-emergence herbicidal efficacy against LOLMU; settings: 14 days after application
Method in brief: as §6

Phalaris minor (PHAMI) = experiment: greenhouse post-emergence herbicidal efficacy against PHAMI
Method in brief: as §6

Poa annua (POAAN) = experiment: greenhouse post-emergence herbicidal efficacy against POAAN
Method in brief: as §6

Galium aparine (GALAP) = experiment: greenhouse post-emergence herbicidal efficacy against GALAP; settings: 21 days after application
Method in brief: as §6

[5] = tested on: Matricaria inodora (MATIN); experiment: greenhouse post-emergence herbicidal efficacy against MATIN
Method in brief: as §6

[6] = tested on: Polygonum convolvulus (POLCO); experiment: greenhouse post-emergence herbicidal efficacy against POLCO
Method in brief: as §6

DIGSA = experiment: greenhouse post-emergence herbicidal efficacy against DIGSA; settings: 0.4 g of a.i./ha
Experimental: as §1, §3, §4, §5

[7] = 14 days after application, 2.5 g of a.i./ha
[8] = 14 days after application, 10 g of a.i./ha
[9] = 21 days after application, g of a.i./ha: A1-14 10, pyrasulfotole 100
[10] = 21 days after application, g of a.i./ha: A1-14 2.5, pyrasulfotole 25
[11] = 21 days after application, g of a.i./ha: A1-14 2.5, pyrasulfotole 100

Question: For `Cc1nnc(NC(=O)c2ccc(C(F)(F)F)c([S+](C)[O-])c2Cl)o1` (stereo not shown) [A1-14], which Efficacy ([1]; 14 days after application) is on record?
Answer: Its Efficacy is 0%.

Question: And the Efficacy ([1]; 21 days after application)?
Answer: The Efficacy was 0%.

Question: What about the Efficacy (Eleusine indica (ELEIN); 0.1 g of a.i./ha) of the same molecule?
Answer: Its Efficacy is 0%.

Question: And the Efficacy (Eleusine indica (ELEIN); 0.4 g of a.i./ha)?
Answer: Its Efficacy is 20%.

Question: What about the Efficacy (Setaria viridis (SETVI); 14 days after application, 0.1 g of a.i./ha) of the same molecule?
Answer: Its Efficacy is 0%.

Question: And the Efficacy (Setaria viridis (SETVI); 21 days after application, 0.4 g of a.i./ha)?
Answer: Its Efficacy is 0%.

Question: And the Efficacy [2]?
Answer: Its Efficacy is 0%.

Question: What about the Efficacy ([3]; 14 days after application) of the same molecule?
Answer: The Efficacy was 0%.

Question: What about the Efficacy ([3]; 21 days after application) of the same molecule?
Answer: Its Efficacy is 0%.

Question: And the Efficacy (Bromus sterilis (BROST); [7])?
Answer: The Efficacy was 0%.

Question: And the Efficacy (Bromus sterilis (BROST); [8])?
Answer: The Efficacy was 3%.

Question: And the Efficacy (Bromus sterilis (BROST); [9])?
Answer: The Efficacy was 0%.

Question: What about the Efficacy ([4]; 2.5 g of a.i./ha) of the same molecule?
Answer: Its Efficacy is 0%.

Question: And the Efficacy ([4]; 10 g of a.i./ha)?
Answer: Its Efficacy is 0%.

Question: What about the Efficacy (Phalaris minor (PHAMI); [7]) of the same molecule?
Answer: Its Efficacy is 0%.

Question: What about the Efficacy (Phalaris minor (PHAMI); [8]) of the same molecule?
Answer: The Efficacy was 25%.

Question: And the Efficacy (Phalaris minor (PHAMI); [10])?
Answer: The Efficacy was 0%.

Question: And the Efficacy (Phalaris minor (PHAMI); [11])?
Answer: The Efficacy was 0%.

Question: And the Efficacy (Poa annua (POAAN); [7])?
Answer: Its Efficacy is 10%.

Question: What about the Efficacy (Poa annua (POAAN); [10]) of the same molecule?
Answer: The Efficacy was 0%.

Question: And the Efficacy (Poa annua (POAAN); [11])?
Answer: Its Efficacy is 0%.

Question: What about the Efficacy (Galium aparine (GALAP); g of a.i./ha: A1-14 2.5, pyrasulfotole 25) of the same molecule?
Answer: Its Efficacy is 0%.

Question: What about the Efficacy (Galium aparine (GALAP); g of a.i./ha: A1-14 10, pyrasulfotole 25) of the same molecule?
Answer: The Efficacy was 15%.

Question: What about the Efficacy [5, 7] of the same molecule?
Answer: The Efficacy was 50%.

Question: What about the Efficacy [5, 8] of the same molecule?
Answer: Its Efficacy is 60%.

Question: And the Efficacy [5, 11]?
Answer: The Efficacy was 30%.

Question: What about the Efficacy [6, 7] of the same molecule?
Answer: Its Efficacy is 20%.

Question: What about the Efficacy [6, 8] of the same molecule?
Answer: The Efficacy was 20%.

Question: What about the Efficacy [6, 10] of the same molecule?
Answer: Its Efficacy is 0%.

Question: What about the Efficacy [6, 11] of the same molecule?
Answer: Its Efficacy is 0%.

Question: And the Efficacy ([6]; 21 days after application, g of a.i./ha: A1-14 10, pyrasulfotole 25)?
Answer: The Efficacy was 3%.

Question: What about the Efficacy [6, 9] of the same molecule?
Answer: Its Efficacy is 3%.

Question: And the Efficacy (DIGSA; 14 days after application)?
Answer: Its Efficacy is 0%.

Question: What about the Efficacy (DIGSA; 21 days after application) of the same molecule?
Answer: Its Efficacy is 0%.
